Results published in US11318111B2, “CCL5 inhibitors” (LAPKO INC., priority 2018, dated 2022).

What was measured:
rosacea = experiment: Topical treatment of patients with rosacea; format: in vivo, human; settings: two patients, lotion form, 28 days; not in the untreated areas
Experimental: Rosacea: Two patients with rosacea were treated with Compound 25 for 28 days in a lotion form.

hand and facial eczema = experiment: Topical treatment of patients with hand and facial eczema; format: in vivo, human; settings: four patients, topically applied in cream base over 14 days
Experimental: To test the effect of the compounds on treatment of human dermatologic disorders associated with increased CCL5 production by keratinocytes, Compound 11 and Compound 21 were formulated into a topically applied cream at a concentration of 7%. The compounds in the cream base were applied topically to human subjects suffering from dermatitis in an area of the skin with active skin lesions. The control was the topical cream base composition without the active compounds. Outcome was measured by reduction or disappearance to the lesion in the treated area vs the control area.
Eczema: Four patients with hand and facial eczema were treated with Compound 97 topically applied in a cream base over a period of 14 days. By day 7 the eczema had resolved in the area treated in three of the patients and by day 12 in the fourth patient. The eczema persisted in the areas not so treated.

Compound	rosacea in treated area at end of course of therapy (rosacea)	eczema resolved in treated area by day (fourth patient) (hand and facial eczema; the fourth patient)	eczema resolved in treated area by day (three of the patients) (hand and facial eczema; three of the patients, eczema persisted in untreated areas)
CC(C)OC(=O)C(C)(C)Oc1ccc(C(F)(F)F)cc1 [Compound 25]	nearly disappeared		
CC(C)OC(=O)C(C)(C)Oc1ccc(C(=O)c2ccc(Cl)cc2)cc1 [Compound 97]		≤ 12 days	≤ 7 days
